{
  "source": "patent US20150030615A1",
  "about": "“BIOMARKERS FOR CANCER STEM CELLS AND RELATED METHODS OF USE” (VERASTEM, INC., priority 2012, published 2015)",
  "test_system": "tumorspheres of SUM159 cells",
  "test": "gene expression in sequentially passaged tumorspheres treated with chemotherapeutic agents",
  "assay_type": "cell-based, human",
  "details": "paclitaxel-treated SUM159 tumorspheres; 11 CSC-associated genes; percentage change normalized to primary SUM159 tumorspheres (FIG. 14)",
  "note": "“Also recorded” adds a separate entry of the source.",
  "data": [
    {"smiles": "CC(=O)O[C@H]1C(=O)[C@@]2(C)[C@H]([C@H](OC(=O)c3ccccc3)[C@]3(O)C[C@H](OC(=O)[C@H](O)[C@@H](NC(=O)c4ccccc4)c4ccccc4)C(C)=C1C3(C)C)[C@]1(OC(C)=O)CO[C@@H]1C[C@@H]2O", "note": "[paclitaxel]", "values": [
      {"measurement": "expression of upregulated cancer stem cell associated genes", "value": "enhancement of the upregulation; also recorded: enhanced further"}
    ]}
  ]
}
